From publication PMC7562719, “Discovery of a CNS penetrant small molecule SMN2 splicing modulator with improved tolerability for spinal muscular atrophy” (Scientific Reports, 2020)

Test system: SMN protein
Experiment: SMN protein in iPSC-derived motor neurons (HTRF, western blot)
Assay type: cell-based, human
Details: iPSC-derived motor neurons (GM24468), 3 days
Experimental: GM03813 fibroblasts and GM24468-derived MNs were seeded at 1.5 × 10^4 and 4 × 10^4 cells/well in 96-well plates and were treated with TEC-1 or SMN-C3 for 72 h at the concentration of 0.01, 0.03, 0.1, 0.3, 1, or 3 µM. After 72 h exposure of compound, GM24468 derived MNs and GM03813 fibroblasts were washed once with D-PBS (-), lysed with RIPA buffer (Wako) containing cOmplete (Sigma-Aldrich) and PhosSTOP (Sigma-Aldrich). The lysates were spun at 15,000 rpm for 15 min at 4 °C, and the supernatants were collected. The protein concentration was quantified with BCA kit (Wako). The lysates, adjusted to have the same protein amount, were mixed with NuPAGE LDS sample buffer containing DTT and heated at 95 °C for 5 min. Except for HTT detection, each sample (2 µg total protein/lane) was loaded Perfect NT Gel 7.5–15% gel (DRC, Japan) and run at 150 V for 60–70 min with Tris/glycine/SDS running buffer (BIO-RAD, USA). […] After washing with TBS-T four times, chemiluminescence signals were detected by Immunostar Zeta (Wako) and LAS-4000 (GE healthcare). […]
SMN protein concentration of the cells were quantified using an SMN HTRF kit[15] […] The fluorescence emission was read at two different wavelengths (665 nm and 620 nm or 615 nm) using an Envision plate reader (PerkinElmer, USA) excited by 320 nm. The concentration of protein in each cell lysate were measured by BCA kit (BIO-RAD) and used for normalization.

## Cc1cn2nc(-c3nc4ccc(N5CCN(C)CC5)cc4c(=O)[nH]3)cc2c(C)n1 [TEC-1, 2-(4,6-dimethylpyrazolo[1,5-a]pyrazin-2-yl)-6-(4-methylpiperazin-1-yl)quinazolin-4(3H)-one]
  concentration that increased SMA protein: 100 nM
